From patent publication US20250042876A1, “HERBICIDAL PYRAZOLE PYRIMIDINE COMPOUNDS” (SYNGENTA CROP PROTECTION AG, priority 2021, published 2025)

Columns and labels:
Type in all cases: in vivo
Settings in all cases: 250 g/ha, evaluated after 13 days
[1] = system: Echinochloa crus-galli (ECHCG); test: Post-emergence herbicidal test, glasshouse
Method: (§1) Seeds of a variety of test species are sown in standard soil in pots Amaranthus palmeri (AMAPA), Amaranthus retoflexus (AMARE), Setaria faberi (SETFA), Echinochloa crus-galli (ECHCG), Ipomoea hederacea (IPOHE)). After cultivation for one day (pre-emergence) or after 8 days cultivation (post-emergence) under controlled conditions in a glasshouse (at 24/16° C., day/night; 14 hours light; 65% humidity), the plants are sprayed with an aqueous spray solution derived from the formulation of the technical active ingredient in acetone/water (50:50) solution containing 0.5% Tween 20 (polyoxyethelyene sorbitan monolaurate, CAS RN 9005-64-5). Compounds are applied at 250 g/ha unless otherwise stated. The test plants are then grown in a glasshouse under controlled conditions in a glasshouse (at 24/16° C., day/night; 14 hours light; 65% humidity) and watered twice daily. After 13 days for pre and post-emergence, the test is evaluated for the percentage damage caused to the plant. The biological activities are shown in the following table on a five-point scale (5=81-100%; 4=61-80%; 3=41-60%; 2=21-40%; 1=0-20%).

[2] = system: Ipomoea hederacea (IPOHE); test: Post-emergence herbicidal test, glasshouse
Method: as §1

[3] = system: Amaranthus palmeri (AMAPA); test: Post-emergence herbicidal test, glasshouse
Method: as §1

Setaria faberi (SETFA) [4] = test: Post-emergence herbicidal test, glasshouse
Method: as §1

[5] = system: Amaranthus retoflexus (AMARE); test: Post-emergence herbicidal test, glasshouse
Method: as §1

[6] = system: Echinochloa crus-galli (ECHCG); test: Pre-emergence herbicidal test, glasshouse
Method: as §1

[7] = system: Ipomoea hederacea (IPOHE); test: Pre-emergence herbicidal test, glasshouse
Method: as §1

[8] = system: Amaranthus palmeri (AMAPA); test: Pre-emergence herbicidal test, glasshouse
Method: as §1

Setaria faberi (SETFA) [9] = test: Pre-emergence herbicidal test, glasshouse
Method: as §1

[10] = system: Amaranthus retoflexus (AMARE); test: Pre-emergence herbicidal test, glasshouse
Method: as §1

SMILES	ECHCG percentage damage caused to the plant (five-point scale) [1]	IPOHE percentage damage caused to the plant (five-point scale) [2]	AMAPA percentage damage caused to the plant (five-point scale) [3]	SETFA percentage damage caused to the plant (five-point scale) (Setaria faberi (SETFA) [4])	AMARE percentage damage caused to the plant (five-point scale) [5]	ECHCG percentage damage caused to the plant (five-point scale) [6]	IPOHE percentage damage caused to the plant (five-point scale) [7]	AMAPA percentage damage caused to the plant (five-point scale) [8]	SETFA percentage damage caused to the plant (five-point scale) (Setaria faberi (SETFA) [9])	AMARE percentage damage caused to the plant (five-point scale) [10]
FC(F)(F)c1ccc(-n2nc(C(F)(F)F)cc2Cc2ncc(Cl)cn2)cc1 [Compound 1.001, 5-chloro-2-[[5-(trifluoromethyl)-2-[4-(trifluoromethyl)phenyl]pyrazol-3-yl]methyl]pyrimidine]	4 (4=61-80%)	4 (4=61-80%)	4 (4=61-80%)	4 (4=61-80%)	4 (4=61-80%)	5 (5=81-100%)	5 (5=81-100%)	5 (5=81-100%)	5 (5=81-100%)	5 (5=81-100%)
N#Cc1cc(Cc2ncc(Cl)cn2)n(-c2ccc(F)c(F)c2)n1 [Compound 1.025, 5-[(5-chloropyrimidin-2-yl)methyl]-1-(3,4-difluorophenyl)pyrazole-3-carbonitrile]	5 (5=81-100%)	4 (4=61-80%)		5 (5=81-100%)	5 (5=81-100%)	5 (5=81-100%)	5 (5=81-100%)	5 (5=81-100%)		5 (5=81-100%)
Fc1cc(-n2nc(C(F)(F)F)cc2Cc2ncc(Cl)cn2)cnc1Cl [Compound 1.026, 5-chloro-2-[[2-(6-chloro-5-fluoro-3-pyridyl)-5-(trifluoromethyl)pyrazol-3-yl]methyl]pyrimidine]	5 (5=81-100%)	2 (2=21-40%)		5 (5=81-100%)	5 (5=81-100%)	5 (5=81-100%)	5 (5=81-100%)	5 (5=81-100%)		5 (5=81-100%)
CS(=O)(=O)c1ccc(-n2nc(C(F)F)cc2Cc2ncc(Cl)cn2)cc1 [Compound 1.027]	5 (5=81-100%)	5 (5=81-100%)	5 (5=81-100%)		5 (5=81-100%)	5 (5=81-100%)	5 (5=81-100%)	5 (5=81-100%)		5 (5=81-100%)
N#Cc1ccc(-n2nc(C(F)F)cc2Cc2ncc(Cl)cn2)cc1 [Compound 1.028]	5 (5=81-100%)	4 (4=61-80%)	5 (5=81-100%)		5 (5=81-100%)	5 (5=81-100%)	5 (5=81-100%)	5 (5=81-100%)		5 (5=81-100%)
FC(F)c1cc(Cc2ncc(Cl)cn2)n(-c2ccc(Cl)cc2)n1 [Compound 1.029]	4 (4=61-80%)	4 (4=61-80%)	5 (5=81-100%)		5 (5=81-100%)	5 (5=81-100%)	5 (5=81-100%)	5 (5=81-100%)		5 (5=81-100%)
FC(F)c1cc(Cc2ncc(Cl)cn2)n(-c2cnc(Cl)c(Cl)c2)n1 [Compound 1.030]	4 (4=61-80%)	4 (4=61-80%)	5 (5=81-100%)		5 (5=81-100%)	5 (5=81-100%)	4 (4=61-80%)	5 (5=81-100%)		5 (5=81-100%)
FC(F)c1cc(Cc2ncc(Cl)cn2)n(-c2cccc(Cl)c2)n1 [Compound 1.031]	4 (4=61-80%)	4 (4=61-80%)	4 (4=61-80%)		5 (5=81-100%)	5 (5=81-100%)	5 (5=81-100%)	5 (5=81-100%)		5 (5=81-100%)
Fc1ccc(-n2nc(C(F)F)cc2Cc2ncc(Cl)cn2)cc1F [Compound 1.032, 5-chloro-2-[[5-(difluoromethyl)-2-(3,4-difluorophenyl)pyrazol-3-yl]methyl]pyrimidine]	4 (4=61-80%)	4 (4=61-80%)	5 (5=81-100%)		5 (5=81-100%)	5 (5=81-100%)	5 (5=81-100%)	5 (5=81-100%)		5 (5=81-100%)
Fc1ccc(-n2nc(C(F)F)cc2Cc2ncc(Cl)cn2)cc1 [Compound 1.033]	4 (4=61-80%)	4 (4=61-80%)	5 (5=81-100%)		5 (5=81-100%)	5 (5=81-100%)	5 (5=81-100%)	5 (5=81-100%)		5 (5=81-100%)
FC(F)(F)c1ccc(-n2nc(C(F)(F)F)c(Cl)c2Cc2ncc(Br)cn2)cc1 [Compound 1.034, 5-bromo-2-[[4-chloro-5-(trifluoromethyl)-2-[4-(trifluoromethyl)phenyl]pyrazol-3-yl]methyl]pyrimidine]	4 (4=61-80%)	4 (4=61-80%)	5 (5=81-100%)		4 (4=61-80%)	5 (5=81-100%)	5 (5=81-100%)	5 (5=81-100%)		5 (5=81-100%)
FC(F)(F)c1ccc(-n2nc(C(F)(F)Cl)cc2Cc2ncc(Cl)cn2)cc1 [Compound 1.036]	5 (5=81-100%)	3 (3=41-60%)		5 (5=81-100%)	5 (5=81-100%)	5 (5=81-100%)	5 (5=81-100%)	5 (5=81-100%)	5 (5=81-100%)	5 (5=81-100%)
Cc1ccc(-n2nc(C(F)(F)F)cc2Cc2ncc(Cl)cn2)cc1 [Compound 1.037, 5-chloro-2-[[2-(p-tolyl)-5-(trifluoromethyl)pyrazol-3-yl]methyl]pyrimidine]	4 (4=61-80%)	3 (3=41-60%)		5 (5=81-100%)	5 (5=81-100%)	5 (5=81-100%)	1 (1=0-20%)	5 (5=81-100%)	5 (5=81-100%)	5 (5=81-100%)
